13 molecules from PubChem BioAssay (NCI) can be followed below.

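48-hour exposure; five concentrations; linearly interpolated endpoints. GI50 is the concentration that inhibits growth by half. Definition used: TGI = concentration required for complete inhibition of growth.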

Among the test systems are A549 NSCLC; MCF7 breast; MDA-MB-435; NCI-H460 lung; OVCAR-4 ovarian; PC-3 prostate; SK-MEL-28 melanoma; SK-OV-3 ovarian; SN12C renal; TK-10 renal.
What all share (experiment): NCI anticancer screen, dose series, 48 h

Regarding `O=C1CC(n2cccc2)c2c(Br)sc(Br)c21` (centres undefined), the TGI was 61.8 µM in the experiment with A549 NSCLC; 26.9 µM in the experiment with MCF7 breast; 29.3 µM with MDA-MB-435; 36.6 µM in the experiment on NCI-H460 lung; 33.4 µM in the experiment on OVCAR-4 ovarian; 33.9 µM in the experiment with PC-3 prostate. For the same molecule, the TGI was 41.2 µM in the experiment with SK-MEL-28 melanoma, 35.2 µM in the experiment on SK-OV-3 ovarian, 31.1 µM in the experiment with SN12C renal and 45.4 µM in the experiment with TK-10 renal.

Turning to `CN(C)C(=S)Oc1ccc2ccc(=O)oc2c1`, the TGI in the experiment with A549 NSCLC, with MCF7 breast, with MDA-MB-435, in the experiment with NCI-H460 lung, in the experiment with OVCAR-4 ovarian and with PC-3 prostate was more than 100 µM in each case. In addition, the TGI in the experiment with SK-MEL-28 melanoma, in the experiment on SK-OV-3 ovarian, with SN12C renal and in the experiment with TK-10 renal was more than 100 µM in each case.

For the molecule `S=C(NCc1ccccc1)N/N=C/c1ccccn1`, the TGI with A549 NSCLC is more than 100 µM; in the experiment on MCF7 breast it was more than 100 µM; with MDA-MB-435, more than 100 µM; in the experiment on NCI-H460 lung, more than 75.6 µM; in the experiment on OVCAR-4 ovarian, more than 100 µM; in the experiment on PC-3 prostate it was more than 100 µM. The TGI in the experiment with SK-MEL-28 melanoma was more than 100 µM; in the experiment on SK-OV-3 ovarian, more than 29 µM; in the experiment with SN12C renal it was more than 100 µM; with TK-10 renal, more than 100 µM.

As to `COC(=O)c1c(-c2ccc(Cl)cc2)cc2c3ccccc3n(C)c2c1C(=O)OC`, the TGI with A549 NSCLC, in the experiment with MCF7 breast, in the experiment on MDA-MB-435, in the experiment with NCI-H460 lung, in the experiment with OVCAR-4 ovarian and with PC-3 prostate was more than 100 µM in each case. The TGI in the experiment on SK-MEL-28 melanoma, in the experiment on SK-OV-3 ovarian, in the experiment on SN12C renal and with TK-10 renal was more than 100 µM each time.

As to `C=C1C(=O)O[C@H]2[C@H]3O[C@@H](C[C@@H]12)[C@](C)(O)CC[C@@H]1O[C@@]1(C)CCC[C@H]3C`, the TGI in the experiment on A549 NSCLC was more than 100 µM; with MCF7 breast, 50.9 µM; in the experiment on MDA-MB-435 it was 42.2 µM; in the experiment on NCI-H460 lung, 89 µM; in the experiment with OVCAR-4 ovarian, 51.8 µM; in the experiment with PC-3 prostate it was more than 100 µM. Further, the TGI is more than 100 µM with SK-MEL-28 melanoma, more than 100 µM in the experiment with SK-OV-3 ovarian, 65.2 µM in the experiment with SN12C renal and 32.6 µM in the experiment on TK-10 renal.

As for `C=CC1CN2CCC1CC2C(O)c1ccnc2ccccc12` (centres undefined), the TGI in the experiment with A549 NSCLC, with MCF7 breast, in the experiment with MDA-MB-435, with NCI-H460 lung, in the experiment on OVCAR-4 ovarian and in the experiment on PC-3 prostate was more than 100 µM each time. In addition, the TGI with SK-MEL-28 melanoma, with SK-OV-3 ovarian, with SN12C renal and in the experiment with TK-10 renal was more than 100 µM in each case. The GI50 was 5.05 µM in the experiment on MCF7 breast and more than 100 µM in the experiment with OVCAR-4 ovarian.

As to `Cc1[nH]c(=O)[nH]c(=S)c1C(=O)Nc1cccc2cc3ccccc3cc12`, the TGI with MCF7 breast, in the experiment on MDA-MB-435, in the experiment with NCI-H460 lung, in the experiment with OVCAR-4 ovarian, in the experiment on PC-3 prostate and in the experiment on SK-MEL-28 melanoma was more than 100 µM each time. The TGI in the experiment with SK-OV-3 ovarian, with SN12C renal and in the experiment with TK-10 renal was more than 100 µM throughout.

Turning to `CCOC(=O)c1cnccc1CC1(C#N)c2ccccc2C=CN1C(=O)c1ccccc1` (centres undefined), the TGI in the experiment on A549 NSCLC is more than 100 µM; in the experiment with MCF7 breast, more than 100 µM; with MDA-MB-435 it was more than 100 µM; in the experiment on NCI-H460 lung, 89.5 µM; in the experiment with OVCAR-4 ovarian, more than 100 µM; in the experiment on PC-3 prostate, more than 100 µM. Moreover, the TGI was more than 100 µM in the experiment with SK-MEL-28 melanoma, more than 100 µM in the experiment with SK-OV-3 ovarian, 97.3 µM with SN12C renal and more than 100 µM with TK-10 renal.

`N#Cc1nc(C#N)n(C(=O)c2ccccc2)c1NC(=O)c1ccccc1`: the TGI with A549 NSCLC, in the experiment with MCF7 breast, in the experiment on MDA-MB-435, in the experiment on NCI-H460 lung, with OVCAR-4 ovarian and with PC-3 prostate was more than 100 µM each time. Also, the TGI in the experiment with SK-MEL-28 melanoma, in the experiment on SK-OV-3 ovarian, with SN12C renal and with TK-10 renal was more than 100 µM each time.

`N/C(=N\Nc1ccc(S(N)(=O)=O)cc1)c1cnccn1`: the TGI with A549 NSCLC, in the experiment on MCF7 breast, in the experiment with MDA-MB-435, with NCI-H460 lung, in the experiment on OVCAR-4 ovarian and with PC-3 prostate was more than 100 µM throughout. Further, the TGI with SK-MEL-28 melanoma, in the experiment on SK-OV-3 ovarian, with SN12C renal and with TK-10 renal was more than 100 µM in each case.

`O=C(/C=C/c1cccs1)c1ccccc1Cl`: the TGI in the experiment with A549 NSCLC turned out to be 1.4 µM; in the experiment with MCF7 breast, 18.2 µM; in the experiment on MDA-MB-435 it was 25.5 µM; in the experiment with NCI-H460 lung it was 40.8 µM; with OVCAR-4 ovarian, 26.8 µM; in the experiment with PC-3 prostate it was 34.5 µM. Moreover, the TGI is 38.8 µM in the experiment with SK-MEL-28 melanoma, more than 77.9 µM in the experiment with SK-OV-3 ovarian, 30.2 µM in the experiment with SN12C renal and 32.3 µM with TK-10 renal.

As to `CC(C)(C)OC(=O)n1cc(C2CN(O)C(=O)C23CCC(=O)N3Cc2ccccc2)c2ccccc21` (centres undefined), the TGI with A549 NSCLC, in the experiment on MCF7 breast, in the experiment with MDA-MB-435, in the experiment with NCI-H460 lung, with OVCAR-4 ovarian and in the experiment on PC-3 prostate was more than 100 µM throughout. Further, the TGI was 66.5 µM in the experiment on SK-OV-3 ovarian, 81.8 µM in the experiment with SN12C renal and more than 100 µM in the experiment with TK-10 renal.

Consider `Cn1c2ccccc2n2c3ncccc3c(=S)c(C#N)c12`, for which the TGI in the experiment on A549 NSCLC, in the experiment with MCF7 breast, with MDA-MB-435, in the experiment on NCI-H460 lung, with OVCAR-4 ovarian and in the experiment on PC-3 prostate was more than 100 µM each time. Further, the TGI in the experiment with SK-MEL-28 melanoma, in the experiment with SK-OV-3 ovarian and in the experiment on SN12C renal was more than 100 µM throughout.
